{"source": "ChEMBL document CHEMBL5126556", "about": "“Recent advances in natural anti-obesity compounds and derivatives based on in vivo evidence: A mini-review” (Eur J Med Chem, 2022)", "key": {"Mus musculus [1]": {"system": "Mus musculus", "test": "Anti-obesity activity in female C57BL/6 mouse model of high-fat diet induced obesity assessed as body weight change at 40 mg/kg, po administered once daily for 16 weeks relative to control", "format": "functional"}, "Mus musculus [2]": {"system": "Mus musculus", "test": "Anti-obesity activity in ovariectomized C57BL/6 mouse assessed as body weight change at 40 mg/kg, po administered once daily for 16 weeks relative to control", "format": "functional"}, "Mus musculus [3]": {"system": "Mus musculus", "test": "Anti-obesity activity in male C57BL/6 mouse model of high-fat diet induced obesity assessed as body weight change at 30 mg/kg, po administered once a day for 8 weeks relative to control", "format": "functional"}, "[4]": {"target": "BDNF/NT-3 growth factors receptor (Homo sapiens, UniProt Q16620)", "sequence (Q16620 whole entry, the tested form may be a part)": "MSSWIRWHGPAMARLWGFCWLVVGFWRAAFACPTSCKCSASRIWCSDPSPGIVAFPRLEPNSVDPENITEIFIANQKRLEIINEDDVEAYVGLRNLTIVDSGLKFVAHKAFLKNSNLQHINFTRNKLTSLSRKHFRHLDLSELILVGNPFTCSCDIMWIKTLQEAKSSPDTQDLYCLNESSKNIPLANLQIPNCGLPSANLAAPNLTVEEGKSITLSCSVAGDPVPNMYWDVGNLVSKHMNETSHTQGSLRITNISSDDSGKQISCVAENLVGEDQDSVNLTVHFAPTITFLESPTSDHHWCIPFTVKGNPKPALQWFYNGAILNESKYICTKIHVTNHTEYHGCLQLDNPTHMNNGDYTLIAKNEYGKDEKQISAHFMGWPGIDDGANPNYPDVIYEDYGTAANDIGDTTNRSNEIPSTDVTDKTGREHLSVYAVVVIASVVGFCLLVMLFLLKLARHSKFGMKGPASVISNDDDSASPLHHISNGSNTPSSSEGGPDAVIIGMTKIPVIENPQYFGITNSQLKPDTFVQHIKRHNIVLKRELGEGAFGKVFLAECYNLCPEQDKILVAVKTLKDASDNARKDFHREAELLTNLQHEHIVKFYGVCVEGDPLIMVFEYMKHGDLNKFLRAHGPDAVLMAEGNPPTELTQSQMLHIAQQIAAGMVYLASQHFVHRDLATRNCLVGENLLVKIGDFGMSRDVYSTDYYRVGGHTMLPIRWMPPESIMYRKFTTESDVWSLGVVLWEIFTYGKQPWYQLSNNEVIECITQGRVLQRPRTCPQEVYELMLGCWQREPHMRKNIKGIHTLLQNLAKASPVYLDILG", "test": "Binding affinity to recombinant human TrkB receptor ECD assessed as dissociation constant"}, "Mus musculus [5]": {"system": "Mus musculus", "test": "Anti-obesity activity in female C57BL/6 mouse model of high-fat diet induced obesity assessed as body weight change administered orally for 20 weeks relative to control", "format": "functional", "settings": "route po"}, "Mus musculus [6]": {"system": "Mus musculus", "test": "Anti-obesity activity in male C57BL/6 mouse model of high-fat diet induced obesity assessed as body weight change at 15 mg/kg, ip administered once a day for 8 weeks relative to control", "format": "functional"}, "Mus musculus [7]": {"system": "Mus musculus", "test": "Anti-obesity activity in male C57BL/6 mouse model of high-fat diet induced obesity assessed as body weight change at 25 mg/kg, ip administered once a day for 13 weeks relative to control", "format": "functional"}, "Mus musculus [8]": {"system": "Mus musculus", "test": "Anti-obesity activity in male C57BL/6 mouse model of high-fat diet induced obesity assessed as body weight change at 50 mg/kg, po administered once a day for 8 weeks relative to control", "format": "functional"}, "Mus musculus [9]": {"system": "Mus musculus", "test": "Anti-obesity activity in male C57BL/6 mouse model of high-fat diet induced obesity assessed as body weight change at 5 mg/kg, po administered thrice a week for 8 weeks relative to control", "format": "functional"}, "[10]": {"target": "T1, Pancreatic triacylglycerol lipase (Sus scrofa, UniProt P00591)", "T1 sequence (P00591 whole entry)": "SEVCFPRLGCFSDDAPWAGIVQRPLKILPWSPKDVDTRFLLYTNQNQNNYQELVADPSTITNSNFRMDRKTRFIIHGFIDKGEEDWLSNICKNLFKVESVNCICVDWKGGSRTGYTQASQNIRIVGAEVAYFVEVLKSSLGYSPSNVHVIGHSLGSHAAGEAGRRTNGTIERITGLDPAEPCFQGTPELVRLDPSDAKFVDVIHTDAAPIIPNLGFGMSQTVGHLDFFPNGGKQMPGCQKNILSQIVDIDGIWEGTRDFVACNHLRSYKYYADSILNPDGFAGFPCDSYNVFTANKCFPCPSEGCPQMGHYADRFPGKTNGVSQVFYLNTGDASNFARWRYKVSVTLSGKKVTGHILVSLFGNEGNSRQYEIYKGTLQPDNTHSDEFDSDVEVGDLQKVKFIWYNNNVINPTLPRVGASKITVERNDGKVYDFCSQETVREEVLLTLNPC", "test": "Inhibition of porcine pancreatic lipase using trioleate as substrate assessed as inhibition of substrate hydrolysis measured for 10 mins"}, "Mus musculus [11]": {"system": "Mus musculus", "test": "Anti-obesity activity in male C57BL/6 mouse model of high-fat diet induced obesity assessed as body weight change at 20 mg/kg, ip administered twice a week for 12 weeks relative to control", "format": "functional"}, "[12]": {"test": "Toxicity in po dosed mouse assessed as lethal dose", "format": "organism-based", "settings": "in vivo"}, "Mus musculus [13]": {"system": "Mus musculus", "test": "Anti-obesity activity in male C57BL/6 mouse model of high-fat diet induced obesity assessed as body weight change at 3 mg/kg, po administered once a day for 8 weeks relative to control", "format": "functional"}, "Mus musculus [14]": {"system": "Mus musculus", "test": "Anti-obesity activity in male C57BL/6 mouse model of high-fat diet induced obesity assessed as body weight change at 0.1 mg/kg, ip administered once a day for 3 weeks relative to control", "format": "functional"}, "Mus musculus [15]": {"system": "Mus musculus", "test": "Anti-obesity activity in male C57BL/6 mouse model of high-fat diet induced obesity assessed as body weight change at 10 mg/kg, po administered once a day for 3 weeks relative to control", "format": "functional"}, "Mus musculus [16]": {"system": "Mus musculus", "test": "Anti-obesity activity in male C57BL/6 mouse model of high-fat diet induced obesity assessed as body weight change at 0.002 mg/kg, ip administered once a day for 8 weeks relative to control", "format": "functional"}, "Mus musculus [17]": {"system": "Mus musculus", "test": "Anti-obesity activity in male C57BL/6 mouse model of high-fat diet induced obesity assessed as body weight change at 1.25 mg/kg, ip administered once a day for 21 days relative to control", "format": "functional", "settings": "time 21 day"}, "Mus musculus [18]": {"system": "Mus musculus", "test": "Anti-obesity activity in male C57BL/6 mouse model of high-fat diet induced obesity assessed as body weight change at 150 mg/kg, po administered once a day for 4 weeks relative to control", "format": "functional"}, "Mus musculus [19]": {"system": "Mus musculus", "test": "Anti-obesity activity in high-fat diet induced C57BL/6J obese mouse model assessed as body weight change at 150 mg/kg, po administered once daily for 4 weeks relative to control", "format": "functional"}}}
{"smiles": "COc1cc(O)c2c(=O)oc(-c3ccccc3)cc2c1CC=C(C)C", "values": [{"measurement": "Activity", "setting": "Mus musculus [1]", "value": 28.6, "unit": "%"}, {"measurement": "Activity", "setting": "Mus musculus [2]", "value": 17.9, "unit": "%"}]}
{"smiles": "CC1(C)[C@@H](O)CC[C@]2(C)[C@H]3C(=O)C=C4[C@@H]5C[C@@](C)(C(=O)O)CC[C@]5(C)CC[C@@]4(C)[C@]3(C)CC[C@@H]12", "note": "[ENOXOLONE]", "values": [{"measurement": "Activity", "setting": "Mus musculus [3]", "value": 30.2, "unit": "%"}]}
{"smiles": "O=c1cc(-c2ccccc2)oc2c(O)c(O)ccc12", "note": "[7,8-DIHYDROXYFLAVONE]", "values": [{"measurement": "Kd", "setting": "[4]", "value": 10, "unit": "nM"}, {"measurement": "Activity", "setting": "Mus musculus [5]", "value": 72.2, "unit": "%"}]}
{"smiles": "O=C(/C=C/c1ccc(O)c(O)c1)c1ccc(O)cc1O", "note": "[BUTEIN]", "values": [{"measurement": "Activity", "setting": "Mus musculus [6]", "value": 42.9, "unit": "%"}]}
{"smiles": "CC(C)(O)[C@@H]1CC[C@](C)([C@H]2[C@@H](O)C[C@@]3(C)[C@@H]4C[C@H](O[C@@H]5O[C@H](CO)[C@@H](O)[C@H](O)[C@H]5O)[C@H]5C(C)(C)[C@@H](O[C@@H]6OC[C@@H](O)[C@H](O)[C@H]6O)CC[C@@]56C[C@@]46CC[C@]23C)O1", "values": [{"measurement": "Activity", "setting": "Mus musculus [7]", "value": 25.4, "unit": "%"}]}
{"smiles": "COc1cc(O)c(C(=O)[C@@H]2[C@H](CC=C(C)C)C(C)=CC[C@H]2c2ccccc2)c(O)c1", "note": "[PANDURATIN A]", "values": [{"measurement": "Activity", "setting": "Mus musculus [8]", "value": 15, "unit": "%"}]}
{"smiles": "Cc1coc2c1C(=O)C(=O)c1c-2ccc2c(C)cccc12", "note": "[TANSHINONE I]", "values": [{"measurement": "Activity", "setting": "Mus musculus [9]", "value": 30.6, "unit": "%"}]}
{"smiles": "CCCCC/C=C\\C/C=C\\C[C@@H](C[C@@H]1OC(=O)[C@H]1CCCCCC)OC(=O)[C@H](CC(C)C)NC=O", "values": [{"measurement": "IC50", "setting": "[10]", "value": 140, "unit": "nM"}]}
{"smiles": "CC1(C)CC[C@]2(C(=O)O)CC[C@]3(C)C(=CC[C@@H]4[C@@]5(C)C[C@@H](O)[C@H](O)C(C)(C)[C@@H]5CC[C@]43C)[C@@H]2C1", "note": "[MASLINIC ACID]", "values": [{"measurement": "Activity", "setting": "Mus musculus [11]", "value": 18.2, "unit": "%"}]}
{"smiles": "CC1=C(O)C(=O)C=C2C1=CC=C1[C@@]2(C)CC[C@@]2(C)[C@@H]3C[C@](C)(C(=O)O)CC[C@]3(C)CC[C@]12C", "note": "[CELASTROL]", "values": [{"measurement": "LD50", "setting": "[12]", "value": 20.5, "unit": "mg/kg"}, {"measurement": "Activity", "setting": "Mus musculus [13]", "value": 1.8, "unit": "%"}, {"measurement": "Activity", "setting": "Mus musculus [14]", "value": -27.7, "unit": "%"}, {"measurement": "Activity", "setting": "Mus musculus [15]", "value": -45.4, "unit": "%"}]}
{"smiles": "CC1=C(CO)C(=O)O[C@@H]([C@@H](C)[C@H]2CC[C@H]3[C@@H]4C[C@H]5O[C@]56[C@@H](O)C=CC(=O)[C@]6(C)[C@H]4CC[C@]23C)C1", "note": "[WITHAFERIN A]", "values": [{"measurement": "Activity", "setting": "Mus musculus [16]", "value": 30.5, "unit": "%"}, {"measurement": "Activity", "setting": "Mus musculus [17]", "value": 0, "unit": "%"}]}
{"smiles": "CC1(C)C=Cc2c(ccc3c2OC[C@@H](c2ccc(O)cc2O)C3)O1", "note": "[GLABRIDIN]", "values": [{"measurement": "Activity", "setting": "Mus musculus [18]", "value": -16.7, "unit": "%"}, {"measurement": "Activity", "setting": "Mus musculus [19]", "value": -13.2, "unit": "%"}]}
